Here are results for 21 compounds from publication PMC8151276, “An Integrated Approach toward NanoBRET Tracers for Analysis of GPCR Ligand Engagement” (Molecules, 2021).

Each structure is given as a SMILES string.

In the assay the target is T1, ADRB2 (Homo sapiens, UniProt P07550).
T1 construct: purchased Promega (in-house HiBiT-GPCR construct library, NanoBRET)
Kind of assay: NanoBRET screen HiBiT-ADRB2 in HEK293. It is filed as binding. The protocol: Each tracer candidate was screened across the entire library of HiBiT-GPCR constructs using NanoBRET as the detection modality. As depicted in Figure 4A, the specificity of interactions was evaluated through decrease in BRET due to competitive displacement of a bound tracer by excess parental compound. Each tracer was analyzed for binding to each HiBiT-GPCR fusion in the absence and in the presence of competing parental compound. Briefly, HEK293 cells were transfected with HiBiT-GPCR constructs diluted into promoterless DNA to reduce expression and maximize translocation to the cell surface. Each tracer candidate was then screened at concentrations of 1 μM and 0.1 μM across cells expressing these fusions. Cells were treated for 1.5 h with tracer either alone or in the presence of 20 μM competing parental compound (i.e., control). BRET was measured upon addition of purified LgBiT and subsequent complementation with HiBiT genetically fused to a GPCR. The specificity of interactions was assessed through a decrease in BRET signal due to competitive displacement of the bound tracer. To further gauge the robustness of these interactions, the fold response over the control (i.e., BRETtracer/BRETcontrol) was calculated. We chose a 1.5-fold response, which translates to ≥7-fold signal over noise as the minimal threshold required to score an interaction as positive.
HiBiT-GPCR DNA constructs were diluted in 10 mM Tris pH 8 to a final concentration of 0.01 μg/μL, arrayed in 96-well plates and stored at −20 °C. For transfection, HEK293 cells were suspended in Opti-MEM (without phenol red) supplemented with 2% fetal bovine serum (Seradigm) and 100 units/mL penicillin–streptomycin (Gibco) at a final concentration of 220,000 cells/mL and dispensed into white 96-well plates at 90 μL/well. Subsequent transfections and screens were carried using an Agilent Bravo Automated Liquid Handling Platform. First, the 96-well HiBiT DNA arrays were diluted 25-fold in Opti-MEM (without serum or phenol red) to a final concentration of 0.0004 μg/μL and 20 μL of the diluted DNAs were transferred into new 96-well plates. Next, promoterless carrier DNA (1 μg/μL) was diluted 25-fold (0.04 μg/μL) and then dispensed into the diluted arrays at 20 μL/well. Following brief mixing, Viafect transfection reagent (Promega) diluted 16-fold into Opti-MEM was dispensed into the plates at 40 μL/well. After mixing by pipetting, plates were incubated for 10 min on the pipetting station deck. The DNA-transfection reagent complexes were then added to plates containing cells. To facilitate the screen, 10 μL of DNA-transfection reagent complexes were added in duplicates to the top 4 and bottom 4 rows, resulting in two identical 48-well arrays per plate. Plates with transfected cells were incubated for 18–20 h at 37 °C/5% CO2. A screen of each tracer across the entire library using two different concentrations requires duplicate plates of transfected cells. Depending on the number of tracers being screened, transfections can be scaled up using the same ratios. The next day, for each tracer, four 20× screening solutions in tracer dilution buffer (Promega) were prepared: two duplicates at final concentration of 20 μM and two duplicates at a final concentration of 2 μM. […] The four resulting solutions were diluted 4-fold in Opti-MEM without serum or phenol red to generate 5× solutions (5 µM and 0.5 µM tracer +/− 100 μM competing compound). To screen the library, a BioTek MultiFlo FX liquid dispenser was used to dispense 22.5 µL of tracer solution to the top 4 rows and 22.5 µL tracer + competing compound solution to the 4 bottom rows. Plates were briefly mixed on an orbital shaker and incubated for 1.5 h at room temperature. […] Plates were briefly mixed on an orbital shaker and incubated for 15 min to allow complementation.
In general terms: BRET reads energy transfer from a luciferase to a nearby fluorophore.

T1 sequence (P07550 whole entry): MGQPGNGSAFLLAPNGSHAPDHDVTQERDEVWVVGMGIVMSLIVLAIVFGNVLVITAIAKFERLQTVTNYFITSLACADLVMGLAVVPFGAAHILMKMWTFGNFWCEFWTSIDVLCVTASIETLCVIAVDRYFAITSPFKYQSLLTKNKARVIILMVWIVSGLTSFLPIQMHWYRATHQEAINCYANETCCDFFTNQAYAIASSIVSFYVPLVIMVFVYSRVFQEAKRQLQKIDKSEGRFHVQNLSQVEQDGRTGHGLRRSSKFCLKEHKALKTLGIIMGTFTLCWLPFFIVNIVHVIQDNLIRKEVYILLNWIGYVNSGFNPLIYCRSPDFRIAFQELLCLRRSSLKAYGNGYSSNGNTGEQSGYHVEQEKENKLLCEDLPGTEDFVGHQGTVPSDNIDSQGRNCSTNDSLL

As to `O=C(CCc1ccc2n1[B-](F)(F)[N+]1=C(c3ccc[nH]3)C=CC1=C2)NCc1ccc(C(=O)NCCOCCC(=O)N[C@@H]2CC[C@@]3(O)[C@H]4Cc5ccc(O)c6c5[C@@]3(CCN4CC3CC3)[C@H]2O6)cc1` [Naltrexone-3-NB590], the “NanoBRET Fold Response” value was found to be 1.36 (ADRB2, tracer 0.1μM) and 0.89 (ADRB2, tracer 1μM).
Take `CN1CCN(C2=Nc3cc(Cl)ccc3N(CC(=O)NCCOCCOCCOCCOCCNC(=O)CCc3ccc4n3[B-](F)(F)[N+]3=C(c5ccc[nH]5)C=CC3=C4)c3ccccc32)CC1` [Clozapine-c-2-NB590]: the “NanoBRET Fold Response” value (ADRB2, 0.1μM tracer) stood at 0.99 and the “NanoBRET Fold Response” value (ADRB2, 1μM tracer) was determined as 1.02.
Consider `O=C(CCOCCOCCOCCOCCNC(=O)CCc1ccc2n1[B-](F)(F)[N+]1=C(c3ccc[nH]3)C=CC1=C2)NCCCN1CCN(C2=Nc3cc(Cl)ccc3Nc3ccccc32)CC1` [Clozapine-a-2-NB590], for which the “NanoBRET Fold Response” value reads like this: (ADRB2, 0.1μM tracer) 1.09; (ADRB2, 1μM tracer) 1.10.
Take `CCOC(=O)c1cc(C#N)c(N2CCC(C(=O)NS(=O)(=O)Cc3ccccc3/C=C/C(=O)NCCNC(=O)CCc3ccc4n3[B-](F)(F)[N+]3=C(c5ccc[nH]5)C=CC3=C4)CC2)nc1C` [AZD1283-1-NB590]: the “NanoBRET Fold Response” value was 1.01 (ADRB2, 0.1μM) and 1.06 (ADRB2, 1μM).
With `COc1ccc2[nH]c(-c3ccc(CNC(=O)CCOCCOCCOCCOCCNC(=O)CCc4ccc5n4[B-](F)(F)[N+]4=C(c6ccc[nH]6)C=CC4=C5)cc3)c(CCNC(C)=O)c2n1` [AzomelatoninICO9-2-NB590], the “NanoBRET Fold Response” value came out at 0.94 (0.1μM tracer) and 0.99 (1μM tracer).
For `CCCn1c(=O)c2[nH]c(-c3ccc(OCC(=O)NCCNC(=O)CCOCCNC(=O)c4ccc(CNC(=O)CCc5ccc6n5[B-](F)(F)[N+]5=C(c7ccc[nH]7)C=CC5=C6)cc4)cc3)nc2n(CCC)c1=O` [XAC-3-NB590], the “NanoBRET Fold Response” value was 1.04 (ADRB2, tracer 0.1μM) and 1.10 (ADRB2, tracer 1μM).
As for `COc1ccccc1N1CCN(CCCCN2C(=O)c3ccc(CNC(=O)CCOCCNC(=O)c4ccc(CNC(=O)CCc5ccc6n5[B-](F)(F)[N+]5=C(c7ccc[nH]7)C=CC5=C6)cc4)cc3C2=O)CC1` [NAN-190-3-NB590], the “NanoBRET Fold Response” value by setting is: (ADRB2, tracer 0.1μM) 1.00; (ADRB2, tracer 1μM) 1.45.
Turning to `CN(CCC=C1c2ccccc2CCc2ccccc21)C(=O)CCOCCOCCOCCOCCNC(=O)CCc1ccc2n1[B-](F)(F)[N+]1=C(c3ccc[nH]3)C=CC1=C2` [Amitriptyline-e-2-NB590], under “tracer at 1μM”, the “NanoBRET Fold Response” value came out at 1.04.
For the compound `COc1ccc2c(n1)c(CCNC(C)=O)cn2CCNC(=O)CCc1ccc2n1[B-](F)(F)[N+]1=C(c3ccc[nH]3)C=CC1=C2` [Azamelatonin-1-NB590], the “NanoBRET Fold Response” value (0.1μM tracer) is listed as 0.97 and the “NanoBRET Fold Response” value (1μM tracer) is given as 0.90.
On to `O=C(CCOCCOCCOCCOCCNC(=O)CCc1ccc2n1[B-](F)(F)[N+]1=C(c3ccc[nH]3)C=CC1=C2)NCCCN1CCN(C2=Nc3ccccc3Oc3ccc(Cl)cc32)CC1` [Loxapine-a-2-NB590], for which the “NanoBRET Fold Response” value is, setting by setting: (ADRB2, tracer 0.1μM) 1.06; (ADRB2, tracer 1μM) 0.94.
`N#CN/C(=N\CCNC(=O)c1ccc(N)cc1)NCCCOc1cccc(CN2CCCCC2)c1` [Aminopotentidine (unmodified)]: the “NanoBRET Fold Response” value was found to be 1.00 (ADRB2, other tracers/Aminopotentidine (unmodified), 0.1μM) and 1.04 (ADRB2, other tracers/Aminopotentidine (unmodified), 1μM).
Turning to `COc1ccccc1N1CCN(CCCCN2C(=O)c3ccc(CNC(=O)CCOCCOCCOCCOCCNC(=O)CCc4ccc5n4[B-](F)(F)[N+]4=C(c6ccc[nH]6)C=CC4=C5)cc3C2=O)CC1` [NAN-190-2-NB590], the “NanoBRET Fold Response” value runs as follows: (ADRB2, tracer 0.1μM) 1.25; (ADRB2, tracer 1μM) 1.66.
As to `CC(C)N(CC[C@H](c1ccccc1)c1cc(CCNC(=O)c2ccc(CNC(=O)CCc3ccc4n3[B-](F)(F)[N+]3=C(c5ccc[nH]5)C=CC3=C4)cc2)ccc1O)C(C)C` [Tolterodine-BZ-NB590], the “NanoBRET Fold Response” value was 1.04 (ADRB2, tracer 0.1μM) and 1.19 (ADRB2, tracer 1μM).
For the compound `O=C(CCc1ccc2n1[B-](F)(F)[N+]1=C(c3ccc[nH]3)C=CC1=C2)NCCOCCOCCNC(=O)OCCOCCN1CCN(C2=Nc3ccccc3Sc3ccccc32)CC1` [Quetiapine-a-2-NB590], the “NanoBRET Fold Response” value came out at 1.13 (ADRB2, tracer 0.1μM) and 0.97 (ADRB2, tracer 1μM).
In the case of `CN1CCN(C2=Nc3cc(Cl)ccc3Nc3ccc(CNC(=O)CCOCCOCCOCCOCCNC(=O)CCc4ccc5n4[B-](F)(F)[N+]4=C(c6ccc[nH]6)C=CC4=C5)cc32)CC1` [Clozapine-b-2-NB590], the “NanoBRET Fold Response” value is reported as 1.01 (ADRB2, 0.1μM tracer) and 0.93 (ADRB2, 1μM tracer).
Take `CC(C)N(CC[C@H](c1ccccc1)c1cc(CCNC(=O)CCOCCOCCOCCOCCNC(=O)CCc2ccc3n2[B-](F)(F)[N+]2=C(c4ccc[nH]4)C=CC2=C3)ccc1O)C(C)C` [Tolterodine-2-NB590]: the “NanoBRET Fold Response” value runs as follows: (ADRB2, tracer 0.1μM) 0.93; (ADRB2, tracer 1μM) 1.03.
Consider `CN(C)CCC=C1c2ccccc2CCc2ccc(C(=O)NCCNC(=O)CCOCCOCCOCCOCCNC(=O)CCc3ccc4n3[B-](F)(F)[N+]3=C(c5ccc[nH]5)C=CC3=C4)cc21` [Amitriptyline-a-2-NB590], for which the “NanoBRET Fold Response” value runs as follows: (tracer at 0.1μM) 1.04; (tracer at 1μM) 1.03.
`Cc1cc2c(s1)Nc1ccccc1N=C2N1CCN(CCCNC(=O)CCOCCOCCOCCOCCNC(=O)CCc2ccc3n2[B-](F)(F)[N+]2=C(c4ccc[nH]4)C=CC2=C3)CC1` [Olanzapine-a-2-NB590]: the “NanoBRET Fold Response” value reads like this: (ADRB2, tracer 0.1μM) 1.01; (ADRB2, tracer 1μM) 1.15.
In the same order, the values of `N#CN=C(NCCCOc1cccc(CN2CCCCC2)c1)NCCNC(=O)CCOCCOCCOCCOCCNC(=O)CCc1ccc2n1[B-](F)(F)[N+]1=C(c3ccc[nH]3)C=CC1=C2` [Aminopotentidine-2-NB590] are 1.05 and 1.02.
`Cc1nc2n(c(=O)c1CCN1CCC(c3noc4cc(F)ccc34)CC1)CCCC2OC(=O)NCCOCCOCCOCCOCCNC(=O)CCc1ccc2n1[B-](F)(F)[N+]1=C(c3ccc[nH]3)C=CC1=C2` (centres unmarked) [Risperidone-2-NB590]: the “NanoBRET Fold Response” value is, setting by setting: (ADRB2, tracer 0.1μM) 0.97; (ADRB2, tracer 1μM) 0.98.
For `CN(C)CCC=C1c2ccccc2CCc2ccc(C(=O)NCCNC(=O)CCOCCOCCOCCOCCNC(=O)CCc3ccc4n3[B-](F)(F)[N+]3=C(c5ccc[nH]5)C=CC3=C4)cc21` [Amitriptyline-b-2-NB590], the “NanoBRET Fold Response” value by setting is: (tracer at 0.1μM, listed as amitriptyline-b-2-NB590) 1.08; (tracer at 1μM, listed as amitriptyline-b-2-NB590) 0.96.
